US8575091B1, “Amylin analogues and pharmaceutical compositions thereof” (Novo Nordisk A/S, priority 2012, dated 2013)
“Also recorded” adds a separate entry of the source. One block for each compound: values may come before it. Numbered stars: 1 amine (or outer) side, 2 acyl side, 3 side chain; on linkers, the order of the positions; unused ones are H or OH. Bridge positions count the residues as written; N and C are the ends. Side chains are listed from the residue outwards. Peptide text beside a SMILES is read from it. * marks the point of attachment. C20 diacid = O=C(O)CCCCCCCCCCCCCCCCCCC(=O)*; γGlu = O=C(O)[C@H](CCC(=O)[*:2])N[*:1]

What was measured:
Wistar rats = test: Assay (XII) single subcutaneous administration, plasma calcium in rats; type: in vivo, rat; conditions: for Plasma calcium red (%) 0-12 h: single s.c., maximal reduction 0-12 h, compared to vehicle; for suppression of plasma calcium level relative to vehicle: single subcutaneous, over 24 hours
Description: Assay (XII)—Effect from Single Subcutaneous Administration of Analogue on Plasma Calcium in Rats
Male Wistar rats (Taconic Europe, ˜250 g at test date) were acclimatized to handling prior to the study. Rats were divided in groups of five and subcutaneously dosed with test compound at time=0. At time T=−15 min; 1 h, 2 h, 4 h, 7 h, 12 h, and 24 h a blood sample was obtained and heparin stabilized plasma was analysed for total calcium (Cobas, Hitachi). Data are illustrated in graphs as mean±SEM.

Sprague-Dawley rats = test: Assay (XI) single subcutaneous administration, food intake monitored for 48 hours in rats; type: in vivo, rat; conditions: single subcutaneous 30 nmol/kg
Description: Assay (XI)—Effect from Single Subcutaneous Administration of Analogue on […] in Rats
Male Sprague-Dawley rats (Taconic Europe, ˜250 g at test date) were acclimatized to reversed day light cycle (lights on from 10 PM to 10 AM) and single housing in online food intake monitoring system (Ellegaard MBRose, Denmark) prior to study start. Rats were divided in groups of five and subcutaneously dosed with test compound (30 nmol/kg) and food intake was monitored for 48 hours hereafter. Data are illustrated in graphs as mean±SEM.

[1] = target: T1, human calcitonin receptor (Homo sapiens, UniProt P30988); test: Assay (II)a functional assay, human calcitonin receptor (CRE luciferase, BHK cells);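 also: luminescence from a CRE-driven luciferase reporter, read by single photon counting after cells were exposed to test samples for 3 h at 37 °C under 5% CO2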; type: cell-based; conditions: read-out: hCTR funct. EC50
T1 construct: expressed in transfected cells
T1 sequence (P30988 25-474): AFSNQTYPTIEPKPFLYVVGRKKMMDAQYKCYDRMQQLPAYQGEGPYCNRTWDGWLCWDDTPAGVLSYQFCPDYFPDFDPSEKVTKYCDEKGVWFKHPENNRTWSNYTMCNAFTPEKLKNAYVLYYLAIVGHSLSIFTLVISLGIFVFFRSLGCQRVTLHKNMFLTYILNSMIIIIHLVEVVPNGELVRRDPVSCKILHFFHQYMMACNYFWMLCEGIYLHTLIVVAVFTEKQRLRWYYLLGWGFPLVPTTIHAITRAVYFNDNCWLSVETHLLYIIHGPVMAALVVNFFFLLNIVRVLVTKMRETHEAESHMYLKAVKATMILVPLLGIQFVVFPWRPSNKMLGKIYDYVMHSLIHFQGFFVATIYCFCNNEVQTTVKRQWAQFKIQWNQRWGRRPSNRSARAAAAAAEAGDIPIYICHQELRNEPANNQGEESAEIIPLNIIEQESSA

[2] = target: T1, human calcitonin receptor; test: Assay (VII) binding to the human calcitonin receptor (SPA, 125I-Calcitonin); conditions: read-out: hCTR bind IC50;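 also: cell membranes coupled to SPA beads, competitive displacement read by scintillation counting, IC50 derived from a one-site competition fit as a measure of receptor affinity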
human amylin receptor = target: T2, human amylin receptor (Homo sapiens, UniProt O60896+P30988); test: Assay (V) binding to the human amylin receptor (SPA, 125I-rat amylin); conditions: human amylin receptor membranes, SPA; read-out: hAmylin-R bind IC50
T2 construct: expressed in transfected cells
T2 sequence (P30988 25-474): T1 sequence (P30988 25-474)
T2 sequence (O60896 24-148 partner): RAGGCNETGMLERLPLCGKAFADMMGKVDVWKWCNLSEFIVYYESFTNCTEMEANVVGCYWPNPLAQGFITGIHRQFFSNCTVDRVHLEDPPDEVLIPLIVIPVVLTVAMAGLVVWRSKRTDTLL
In short: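 SPA competition binding on membranes from Amylin 3(a)/CRE-luc cells, 35 ng/μL membranes with 0.05 mg/well beads. Buffer 50 mM Hepes pH 7.4, 1 mM CaCl2, 5 mM MgCl2, 0.1% OA, 0.02% Tween20. IC50 from one-site competition fit as affinity measure.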

[3] = target: T3, human amylin receptor (amylin 3(a) receptor: human calcitonin receptor + RAMP-3) (Homo sapiens, UniProt O60896+P30988); test: Assay (II)a functional assay, human amylin receptor (CRE luciferase, BHK cells); type: cell-based; conditions: functional assay, human amylin receptor; read-out: hAmylin-R funct. EC50
T3 construct: expressed in transfected cells
T3 sequence (P30988 25-474): T1 sequence (P30988 25-474)
T3 sequence (O60896 24-148 partner): T2 sequence (O60896 24-148 partner)

rat amylin receptor = target: T4, rat amylin receptor (Rattus norvegicus, UniProt P32214+Q9JJ73); test: Assay (VI) binding to the rat amylin receptor; conditions: rCTR bind IC50 divided by rAmylin-R bind IC50
T4 construct: expressed in transfected cells; host or cells: BHK tk'ts 13 (transient, FuGENE 6), membranes
T4 sequence (P32214 25-479 isoform P32214-2 limits assumed): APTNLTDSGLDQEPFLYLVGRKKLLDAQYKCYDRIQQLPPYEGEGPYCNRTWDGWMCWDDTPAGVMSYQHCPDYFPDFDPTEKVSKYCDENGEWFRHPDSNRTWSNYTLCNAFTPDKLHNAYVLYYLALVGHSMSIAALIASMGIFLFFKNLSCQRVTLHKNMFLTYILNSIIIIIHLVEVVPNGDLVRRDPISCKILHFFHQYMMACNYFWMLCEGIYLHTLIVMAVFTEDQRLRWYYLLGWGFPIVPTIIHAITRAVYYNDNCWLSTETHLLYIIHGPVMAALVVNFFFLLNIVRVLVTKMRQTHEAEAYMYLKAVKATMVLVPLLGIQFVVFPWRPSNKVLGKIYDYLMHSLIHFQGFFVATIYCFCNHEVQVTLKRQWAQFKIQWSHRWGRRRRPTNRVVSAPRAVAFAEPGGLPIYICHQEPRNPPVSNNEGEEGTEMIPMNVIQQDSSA
T4 sequence (Q9JJ73 23-147 partner): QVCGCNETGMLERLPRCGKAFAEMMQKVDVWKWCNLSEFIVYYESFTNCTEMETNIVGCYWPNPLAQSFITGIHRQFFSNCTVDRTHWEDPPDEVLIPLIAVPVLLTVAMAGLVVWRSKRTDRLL
In short: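 Binding as in the human amylin receptor binding assay, but with membranes from BHK tk'ts 13 cells transiently co-transfected with rat calcitonin receptor and rat RAMP 3 […]. Membranes were prepared from cells harvested about 48 hours after transfection.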

SMILES: CC[C@H](C)[C@H](NC(=O)[C@H](C)NC(=O)CNC(=O)[C@H](Cc1ccccc1)NC(=O)[C@H](CC(N)=O)NC(=O)[C@@H]1CCCN1C(=O)[C@H](CO)NC(=O)[C@H](CO)NC(=O)[C@H](Cc1c[nH]cn1)NC(=O)[C@H](CCCNC(=N)N)NC(=O)[C@H](CC(C)C)NC(=O)[C@H](Cc1ccccc1)NC(=O)[C@H](CC(N)=O)NC(=O)[C@H](C)NC(=O)[C@H](CC(C)C)NC(=O)[C@H](CCCNC(=N)N)NC(=O)[C@H](CCC(N)=O)NC(=O)[C@@H](NC(=O)[C@H](C)NC(=O)[C@@H]1CSSC[C@H](NC(=O)[C@@H](N)CCCCNC(=O)CC[C@H](NC(=O)CC[C@H](NC(=O)CCCCCCCCCCCCCCCCCCC(=O)O)C(=O)O)C(=O)O)C(=O)N[C@@H](CC(N)=O)C(=O)N[C@@H]([C@@H](C)O)C(=O)N[C@@H](C)C(=O)N[C@@H]([C@@H](C)O)C(=O)N1)[C@@H](C)O)C(=O)N1CCC[C@H]1C(=O)N[C@@H](CO)C(=O)N[C@@H](CO)C(=O)N[C@H](C(=O)N[C@@H](CC(N)=O)C(=O)N[C@H](C(=O)NCC(=O)N[C@@H](Cc1c[nH]cn1)C(=O)N[C@@H](CC(N)=O)C(=O)N[C@H](C(=O)N[C@@H](Cc1ccc(O)cc1)C(N)=O)[C@@H](C)O)C(C)C)[C@@H](C)O [Example 86] (H-K([γGlu-γGlu-C20 diacid])CNTATCATQRLANFLRHSSPNFGAIPSSTNVGHNTY-NH2; disulfide 2-7 (inferred); N-terminus and C-terminus assumed)
Plasma calcium red (%) 0-12 h (Wistar rats; 30 nmol/kg): 0%
suppression of plasma calcium level relative to vehicle (Wistar rats; increasing doses (all doses tested)): None of the doses trigger a notable suppression of the calcium level
food intake monitored over 48 hours versus vehicle (Sprague-Dawley rats): reduces food intake in rats

SMILES: CC[C@H](C)[C@H](NC(=O)[C@H](C)NC(=O)CNC(=O)[C@H](Cc1ccccc1)NC(=O)[C@H](CC(N)=O)NC(=O)[C@@H]1CCCN1C(=O)[C@H](CO)NC(=O)[C@H](CO)NC(=O)[C@H](Cc1c[nH]cn1)NC(=O)[C@H](CCCNC(=N)N)NC(=O)[C@H](CC(C)C)NC(=O)[C@H](Cc1ccccc1)NC(=O)[C@H](CCC(=O)O)NC(=O)[C@H](C)NC(=O)[C@H](CC(C)C)NC(=O)[C@H](CCCNC(=N)N)NC(=O)[C@H](CCC(N)=O)NC(=O)[C@@H](NC(=O)[C@H](C)NC(=O)[C@@H]1CSSC[C@H](NC(=O)[C@@H](N)CCCCNC(=O)CC[C@H](NC(=O)CC[C@H](NC(=O)CCCCCCCCCCCCCCCCCCC(=O)O)C(=O)O)C(=O)O)C(=O)N[C@@H](CC(N)=O)C(=O)N[C@@H]([C@@H](C)O)C(=O)N[C@@H](C)C(=O)N[C@@H]([C@@H](C)O)C(=O)N1)[C@@H](C)O)C(=O)N1CCC[C@H]1C(=O)N[C@@H](CO)C(=O)N[C@@H](CO)C(=O)N[C@H](C(=O)N[C@@H](CC(N)=O)C(=O)N[C@H](C(=O)NCC(=O)N1CCC[C@H]1C(=O)N[C@@H](CCCNC(=N)N)C(=O)N[C@H](C(=O)N[C@@H](Cc1ccc(O)cc1)C(N)=O)[C@@H](C)O)C(C)C)[C@@H](C)O [Example 110] (H-K([γGlu-γGlu-C20 diacid])CNTATCATQRLAEFLRHSSPNFGAIPSSTNVGPRTY-NH2; disulfide 2-7)
Plasma calcium red (%) 0-12 h (Wistar rats; 30 nmol/kg): 8%
suppression of plasma calcium level relative to vehicle (Wistar rats; 30 nmol/kg): None of the example compounds at 30 nmol/kg trigger a notable suppression of the calcium level
food intake monitored over 48 hours versus vehicle (Sprague-Dawley rats): reduces food intake in rats

SMILES: CC(C)C[C@H](NC(=O)[C@H](CCCCN)NC(=O)CNC(=O)[C@H](CC(C)C)NC(=O)[C@@H](NC(=O)[C@@H]1CSSC[C@H](N)C(=O)N[C@@H](CO)C(=O)N[C@@H](CC(N)=O)C(=O)N[C@@H](CC(C)C)C(=O)N[C@@H](CO)C(=O)N[C@@H]([C@@H](C)O)C(=O)N1)C(C)C)C(=O)N[C@@H](CO)C(=O)N[C@@H](CCC(N)=O)C(=O)N[C@@H](CCC(=O)O)C(=O)N[C@@H](CC(C)C)C(=O)N[C@@H](Cc1c[nH]cn1)C(=O)N[C@@H](CCCCN)C(=O)N[C@@H](CC(C)C)C(=O)N[C@@H](CCC(N)=O)C(=O)N[C@H](C(=O)N[C@@H](Cc1ccc(O)cc1)C(=O)N1CCC[C@H]1C(=O)N[C@@H](CCCNC(=N)N)C(=O)N[C@H](C(=O)N[C@@H](CC(N)=O)C(=O)N[C@H](C(=O)NCC(=O)N[C@@H](CO)C(=O)NCC(=O)N[C@H](C(=O)N1CCC[C@H]1C(N)=O)[C@@H](C)O)[C@@H](C)O)[C@@H](C)O)[C@@H](C)O [salmon calcitonin, reference compound]
Plasma calcium red (%) 0-12 h (Wistar rats; 3 nmol/kg): 35%
Plasma calcium red (%) 0-12 h (Wistar rats; 30 nmol/kg): 39%
food intake monitored over 48 hours versus vehicle (Sprague-Dawley rats): reduction of food intake; also recorded: reduces food intake in rats

EC50 [1]: 2.83 nM
IC50 [2]: 10.3 nM
IC50 (human amylin receptor): 0.377 nM
EC50 [3]: 0.172 nM
Ratio rCT/rAmylin binding (rat amylin receptor; Table 7b): 73.0
Ratio rCT/rAmylin binding (rat amylin receptor; Table 7c): 73.0
Ratio rCT/rAmylin binding (rat amylin receptor): 73.0
SMILES: CC[C@H](C)[C@H](NC(=O)[C@H](C)NC(=O)CNC(=O)[C@H](Cc1ccccc1)NC(=O)[C@H](CC(N)=O)NC(=O)[C@@H]1CCCN1C(=O)[C@H](CO)NC(=O)[C@H](CO)NC(=O)[C@H](Cc1c[nH]cn1)NC(=O)[C@H](CCCNC(=N)N)NC(=O)[C@H](CC(C)C)NC(=O)[C@H](Cc1ccccc1)NC(=O)[C@H](CCC(=O)O)NC(=O)[C@H](C)NC(=O)[C@H](CC(C)C)NC(=O)[C@H](CCCNC(=N)N)NC(=O)[C@H](CCC(N)=O)NC(=O)[C@@H](NC(=O)[C@H](C)NC(=O)[C@@H]1CSSC[C@H](NC(=O)[C@@H](N)CCCCNC(=O)CC[C@H](NC(=O)CC[C@H](NC(=O)CCCCCCCCCCCCCCCCCCC(=O)O)C(=O)O)C(=O)O)C(=O)N[C@@H](CC(N)=O)C(=O)N[C@@H]([C@@H](C)O)C(=O)N[C@@H](C)C(=O)N[C@@H]([C@@H](C)O)C(=O)N1)[C@@H](C)O)C(=O)N1CCC[C@H]1C(=O)N[C@@H](CO)C(=O)N[C@@H](CO)C(=O)N[C@H](C(=O)N[C@@H](CC(N)=O)C(=O)N[C@H](C(=O)NCC(=O)N1CCC[C@H]1C(=O)N[C@@H](Cc1c[nH]cn1)C(=O)N[C@H](C(=O)N[C@@H](Cc1ccc(O)cc1)C(N)=O)[C@@H](C)O)C(C)C)[C@@H](C)O [Example 124] (H-K([γGlu-γGlu-C20 diacid])CNTATCATQRLAEFLRHSSPNFGAIPSSTNVGPHTY-NH2; disulfide 2-7)
Plasma calcium red (%) 0-12 h (Wistar rats; 10 nmol/kg): 3%
Plasma calcium red (%) 0-12 h (Wistar rats; 30 nmol/kg): 11%
